Experimental data reported in US20220235065A1 (Epizyme, Inc., priority 2016, published 2022).
Counter-ions that a name gives are not always drawn.

Molecular target: T1, recombinant purified human EHMT2 913-1193 (Homo sapiens, UniProt Q96KQ7)
T1 construct: Recombinant purified human EHMT2 913-1193 (55 μM) synthesized by Viva was used for all experiments; purchased Viva
T1 sequence (Q96KQ7 913-1193): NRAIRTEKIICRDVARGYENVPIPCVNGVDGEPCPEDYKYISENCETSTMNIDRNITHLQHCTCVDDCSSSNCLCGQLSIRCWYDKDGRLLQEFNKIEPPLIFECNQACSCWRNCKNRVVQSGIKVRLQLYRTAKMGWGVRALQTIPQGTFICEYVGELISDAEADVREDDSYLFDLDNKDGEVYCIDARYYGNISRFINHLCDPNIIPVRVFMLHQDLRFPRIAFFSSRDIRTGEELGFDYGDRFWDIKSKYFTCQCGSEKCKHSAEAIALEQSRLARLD
Test: EHMT2 enzyme assay on histone peptide substrate (3H-SAM Flashplate)
Format: biochemical
Settings: read-out: EHMT2 PEP (IC50 μM)
Outline: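 Compounds (10-point 3-fold series, top 50 μM final, 2% DMSO) preincubated 30 min with 0.031 nM EHMT2 in 20 mM Bicine pH 7.5, 1 mM TCEP; reaction started with 3H-SAM and biotinylated H3 1-15 peptide, both at Km, run 60 min at room temperature. Flashplate capture; IC50 from four-parameter fit, triplicates.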

| IC50 | SMILES |
| --- | --- |
| 1 to 10 µM | CNc1cc(C)nc(Nc2ccc(OC)c(-n3ncc4cnccc43)c2)n1 [Compound 35, 2-N-(4-methoxy-3-[1H-pyrazolo[4,3-c]pyridin-1-yl]phenyl)-4-N,6-dimethylpyrimidine-2,4-diamine; trifluoroacetic acid] |
| < 0.1 µM | CNc1cc(C)nc(Nc2ccc(Cl)c(-c3cc4[nH]ccc4cn3)c2)n1 [Compound 255] |
| < 0.1 µM | CNCc1cnn(-c2cc(Nc3nc(C)cc(NC)n3)ccc2C(F)(F)F)c1 [Compound 325] |
| 1 to 10 µM | CNc1cc(C)nc(Nc2ccc(Cl)c(C(=O)Nc3ncccn3)c2)n1 [Compound 258] |
| < 0.1 µM | CNc1cc(C)nc(Nc2ccc(OC)c(-n3cc(CN)cn3)c2)n1 [Compound 23, 2-N-[3-[4-(aminomethyl)-1H-pyrazol-1-yl]-4-methoxyphenyl]-4-N,6-dimethylpyrimidine-2,4-diamine; trifluoroacetic acid] |
| 0.1 to 1 µM | CNc1nc2cc(-c3[nH]c4cnccc4c3C)c(OC)cc2n1C [Compound 304] |
| 1 to 10 µM | CNc1nc2cc(-c3cc4[nH]ccc4cn3)c(C)cc2n1C [Compound 257] |
| < 0.1 µM | CNC1=Nc2cc(-n3cc(C4CCCN4)cn3)c(OC)cc2C12CCC2 (stereo not drawn) [Compound 322] |
| > 10 µM | CNc1cc(C)nc(Nc2ccc(OC)c(-c3c(C)nc4cnccn34)c2)n1 [Compound 39] |
| > 10 µM | CNc1cc(C)nc(Nc2ccc(OC)c(-n3cc4c(n3)CNCC4)c2)n1 [Compound 22, 2-N-(4-methoxy-3-[2H,4H,5H,6H,7H-pyrazolo[3,4-c]pyridin-2-yl]phenyl)-4-N,6-dimethylpyrimidine-2,4-diamine hydrochloride] |
| < 0.1 µM | CNCc1cnn(-c2c(Cl)ccc(Nc3nc(C)cc(NC)n3)c2Cl)c1 [Compound 327] |
| 1 to 10 µM | COc1cc2c(cc1-c1cc3[nH]ccc3cn1)N=C(NCC(N)=O)C21CCC1 [Compound 309] |
